# From patent publication US20230183237A1, “COMPETITIVE AND NONCOMPETITIVE INHIBITORS OF THE MUSCARINIC ACETYLCHOLINE RECEPTOR M5” (Vanderbilt University, priority 2020, published 2023)
# Target: T1, hM5 (Homo sapiens, UniProt P08912)
# T1 construct: expressed in transfected cells
# T1 sequence (P08912 1-532): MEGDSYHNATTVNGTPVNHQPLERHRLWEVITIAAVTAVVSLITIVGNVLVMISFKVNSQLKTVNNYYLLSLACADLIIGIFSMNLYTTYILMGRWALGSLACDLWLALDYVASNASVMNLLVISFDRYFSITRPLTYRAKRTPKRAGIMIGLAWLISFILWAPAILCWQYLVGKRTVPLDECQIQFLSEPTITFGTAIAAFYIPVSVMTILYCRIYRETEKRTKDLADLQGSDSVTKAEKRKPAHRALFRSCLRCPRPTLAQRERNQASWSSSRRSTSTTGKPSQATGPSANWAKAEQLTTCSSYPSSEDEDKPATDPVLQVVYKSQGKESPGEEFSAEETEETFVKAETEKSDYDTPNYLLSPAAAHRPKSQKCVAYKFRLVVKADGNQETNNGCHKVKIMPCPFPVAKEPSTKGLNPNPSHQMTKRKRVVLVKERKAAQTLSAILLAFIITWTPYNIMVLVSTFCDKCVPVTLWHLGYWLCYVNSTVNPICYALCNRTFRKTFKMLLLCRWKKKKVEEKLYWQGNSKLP
# Assay: Calcium mobilization concentration-response (IC50 vs EC80 acetylcholine), CHO hM5
# Assay type: cell-based
# Conditions: not given
# Summary of the method: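 CHO cells stably expressing hM5, dye-loaded, in HBSS/20 mM HEPES/2.5 mM probenecid, pH 7.4. Compounds were pre-incubated 140 s before an EC80 acetylcholine challenge, with calcium flux read kinetically.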
row,Structure (SMILES),IC50 [nM]
1,"Cc1cc2ncnn2cc1C1=CC2CCC(C1)N2S(=O)(=O)c1ccc2c(c1)CCO2 (centres unmarked) [Compound 190, 6-(8-((2,3-dihydrobenzofuran-5-yl)sulfonyl)-8-azabicyclo[3.2.1]oct-2-en-3-yl)-7-methyl-[1,2,4]triazolo[1,5-a]pyridine]",> 10000

# Same assay, conditions: CELL LINE hM5; calcium mobilization, EC80 acetylcholine addition; read-out: IC50
row,Structure (SMILES),IC50 [nM]
1,"Cc1c(S(=O)(=O)N2CC=C(c3cnc4ncnn4c3C)CC2)cnn1C [Compound 243, 6-(1-((1,5-dimethyl-1H-pyrazol-4-yl)sulfonyl)-1,2,3,6-tetrahydropyridin-4-yl)-7-methyl-[1,2,4]triazolo[1,5-a]pyrimidine]",> 10000
2,"Cc1ncc(S(=O)(=O)N2CCC(c3ccc4c(c3)OCO4)CC2)n1C [Compound 358, 4-(benzo[d][1,3]dioxol-5-yl)-1-((1,2-dimethyl-1H-imidazol-5-yl)sulfonyl)piperidine]",1390
3,"O=S(=O)(c1cnn2c1CCCC2)N1CCC(c2cn3ncnc3cc2C(F)(F)F)CC1 [Compound 271, 6-(1-((4,5,6,7-tetrahydropyrazolo[1,5-a]pyridin-3-yl)sulfonyl)piperidin-4-yl)-7-(trifluoromethyl)-[1,2,4]triazolo[1,5-a]pyridine]",51
4,"Cc1cc2ncnn2cc1C1CCN(S(=O)(=O)c2cc(C(F)(F)F)nn2C)CC1 [Compound 146, 7-methyl-6-(1-((1-methyl-3-(trifluoromethyl)-1H-pyrazol-5-yl)sulfonyl)piperidin-4-yl)-[1,2,4]triazolo[1,5-a]pyridine]",> 10000
5,"Cc1cc2ncnn2cc1C1=CCN(S(=O)(=O)c2cc3c(cc2F)OCC3)CC1 [Compound 46, 6-(1-((6-fluoro-2,3-dihydrobenzofuran-5-yl)sulfonyl)-1,2,3,6-tetrahydropyridin-4-yl)-7-methyl-[1,2,4]triazolo[1,5-a]pyridine]",2700
6,"Cc1cc2ncnn2cc1C1CCN(S(=O)(=O)c2ccc3c(c2)C(C)CO3)CC1 (centres unmarked) [Compound 73, 7-methyl-6-(1-((3-methyl-2,3-dihydrobenzofuran-5-yl)sulfonyl)piperidin-4-yl)-[1,2,4]triazolo[1,5-a]pyridine]",69
7,"O=S(=O)(c1ccc2c(c1)CCO2)N1CCC(c2ccc3ncnn3c2)CC1 [Compound 60, 6-(1-((2,3-dihydrobenzofuran-5-yl)sulfonyl)piperidin-4-yl)-[1,2,4]triazolo[1,5-a]pyridine]",> 10000
8,"Cc1cc2nccn2nc1C1CCN(S(=O)(=O)c2cn(C)nc2C)CC1 [Compound 55, 6-(1-((1,3-dimethyl-1H-pyrazol-4-yl)sulfonyl)piperidin-4-yl)-7-methylimidazo[1,2-b]pyridazine]",5600
9,"Cc1cn2ncnc2cc1C1CCN(S(=O)(=O)c2cnn(C)c2C)CC1 [Compound 222, 7-(1-((1,5-Dimethyl-1H-pyrazol-4-yl)sulfonyl)piperidin-4-yl)-6-methyl-[1,2,4]triazolo[1,5-a]pyridine]",276
10,"[2H]C([2H])([2H])n1nc(Cl)c(S(=O)(=O)N2CCC(c3cn4ncnc4c(F)c3C)CC2)c1C [Compound 319, 6-(1-((3-chloro-5-methyl-1-(methyl-d3)-1H-pyrazol-4-yl)sulfonyl)piperidin-4-yl)-8-fluoro-7-methyl-[1,2,4]triazolo[1,5-a]pyridine]",12
11,"O=S(=O)(c1cnn2c1NCCC2)N1CCC(c2cn3ncnc3cc2F)CC1 [Compound 253, 7-fluoro-6-(1-((4,5,6,7-tetrahydropyrazolo[1,5-a]pyrimidin-3-yl)sulfonyl)piperidin-4-yl)-[1,2,4]triazolo[1,5-a]pyridine]",57
12,"O=S(=O)(c1ccc2ncsc2c1)N1CCC(c2ccncc2)CC1 [Compound 1, 6-((4-(pyridin-4-yl)piperidin-1-yl)sulfonyl)benzo[d]thiazole]",> 10000
13,"Cc1nc2cc(C)c(C3CCN(S(=O)(=O)c4ccc5c(c4)C(C)CO5)CC3)cn2n1 (centres unmarked) [Compound 89, 2,7-dimethyl-6-(1-((3-methyl-2,3-dihydrobenzofuran-5-yl)sulfonyl)piperidin-4-yl)-[1,2,4]triazolo[1,5-a]pyridine]",2100
14,"Cc1cc2nccn2nc1C1CCN(S(=O)(=O)c2cccnc2)CC1 [Compound 53, 7-methyl-6-(1-(pyridin-3-ylsulfonyl)piperidin-4-yl)imidazo[1,2-b]pyridazine]",> 10000
15,"Cc1ccncc1C1CCN(S(=O)(=O)c2cnc(C)n2C)CC1 [Compound 385, 3-(1-((1,2-dimethyl-1H-imidazol-5-yl)sulfonyl)piperidin-4-yl)-4-methylpyridine]",> 10000
16,"O=S(=O)(c1c(Cl)nc2sccn12)N1CCC(c2cn3ncnc3cc2Cl)CC1 [Compound 344, 6-chloro-5-((4-(7-chloro-[1,2,4]triazolo[1,5-a]pyridin-6-yl)piperidin-1-yl)sulfonyl)imidazo[2,1-b]thiazole]",18
17,"Cn1ccc(-c2cc3ncnn3cc2C2CCN(S(=O)(=O)c3cnn4c3CCCC4)CC2)n1 [Compound 333, 7-(1-methyl-1H-pyrazol-3yl)-6-(1-((4,5,6,7-tetrahydropyrazolo[1,5-a]pyridin-3-yl)sulfonyl)piperidin-4-yl)-[1,2,4]triazolo[1,5-a]pyridine]",> 10000
18,"Cc1cc2ncnn2nc1C1CCN(S(=O)(=O)c2cnc(C)n2C)CC1 [Compound 216, 6-(1-((1,2-dimethyl-1H-imidazol-5-yl)sulfonyl)piperidin-4-yl)-7-methyl-[1,2,4]triazolo[1,5-b]pyridazine]",689
19,"Cc1cc2nccn2nc1C1CCN(S(=O)(=O)c2cnn3c2CCCC3)CC1 [Compound 247, 7-methyl-6-(1-((4,5,6,7-tetrahydropyrazolo[1,5-a]pyridin-3-yl)sulfonyl)piperidin-4-yl)imidazo[1,2-b]pyridazine]",19

# Same assay, conditions: CELL LINE hM5; vs EC80 acetylcholine; read-out: IC50
row,Structure (SMILES),IC50 [nM]
1,"Cc1cc(S(=O)(=O)N2CCC(c3cn4ncnc4c(F)c3C)CC2)sn1 [Compound 485, 5-((4-(8-fluoro-7-methyl-[1,2,4]triazolo[1,5-a]pyridin-6-yl)piperidin-1-yl)sulfonyl)-3-methylisothiazole]",17
2,"Cn1ncc(S(=O)(=O)N2CCC(c3ccc4ncnn4c3)CC2)c1C#N [Compound 432, 4-((4-([1,2,4]triazolo[1,5-a]pyridin-6-yl)piperidin-1-yl)sulfonyl)-1-methyl-1H-pyrazole-5-carbonitrile]",777
3,"Cc1cc2nccn2nc1N1CCN(S(=O)(=O)c2cnn(C)c2C)CC1 [Compound 434, 6-[4-(1,5-Dimethylpyrazol-4-yl)sulfonylpiperazin-1-yl]-7-methyl-imidazo[1,2-b]pyridazine]",43
4,"[2H]c1nc2cc(Cl)c(C3=CCN(S(=O)(=O)c4cnc(C)s4)CC3)cn2n1 [Compound 611, 5-((4-(7-chloro-[1,2,4]triazolo[1,5-a]pyridin-6-yl-2-d)-3,6-dihydropyridin-1(2H)-yl)sulfonyl)-2-methylthiazole]",97
5,"Cc1ncc(S(=O)(=O)N2CCC(c3cn4ncnc4cc3C(F)(F)F)CC2)o1 [Compound 498, 2-methyl-5-((4-(7-(trifluoromethyl)-[1,2,4]triazolo[1,5-a]pyridin-6-yl)piperidin-1-yl)sulfonyl)oxazole]",496
6,"Cc1cc2ncnn2cc1C1(F)CCN(S(=O)(=O)c2cnn(C)c2C(F)F)CC1 [Compound 422, 6-(1-((5-(difluoromethyl)-1-methyl-1H-pyrazol-4-yl)sulfonyl)-4-fluoropiperidin-4-yl)-7-methyl-[1,2,4]triazolo[1,5-a]pyridine]",86
7,"CCc1cc2ncnn2cc1C1CCN(S(=O)(=O)c2nncn2C)CC1 [Compound 514, 7-ethyl-6-(1-((4-methyl-4H-1,2,4-triazol-3-yl)sulfonyl)piperidin-4-yl)-[1,2,4]triazolo[1,5-a]pyridine]",> 10000
8,"Cc1c(S(=O)(=O)N2CCC(c3cn4ncnc4cc3C(=O)N(C)C)CC2)cnn1C [Compound 471, 6-(1-((1,5-dimethyl-1H-pyrazol-4-yl)sulfonyl)piperidin-4-yl)-N,N-dimethyl-[1,2,4]triazolo[1,5-a]pyridine-7-carboxamide]",> 10000
9,"Cc1c(C2CCN(S(=O)(=O)c3nncn3C)CC2)cn2ncnc2c1F [Compound 542, 8-fluoro-7-methyl-6-(1-((4-methyl-4H-1,2,4-triazol-3-yl)sulfonyl)piperidin-4-yl)-[1,2,4]triazolo[1,5-a]pyridine]",1710
10,"Cc1cc(S(=O)(=O)N2CCC(c3nn4ncnc4cc3C)CC2)sn1 [Compound 487, 3-methyl-5-((4-(7-methyl-[1,2,4]triazolo[1,5-b]pyridazin-6-yl)piperidin-1-yl)sulfonyl)isothiazole]",343
11,"COc1c(S(=O)(=O)N2CCC(c3cn4ncnc4cc3C)CC2)cnn1C [Compound 573, 6-(1-((5-methoxy-1-methyl-1H-pyrazol-4-yl)sulfonyl)piperidin-4-yl)-7-methyl-[1,2,4]triazoto[1,5-a]pyridine]",12
12,"Cc1nsc(S(=O)(=O)N2CCC(c3cn4ncnc4cc3Cl)CC2)n1 [Compound 608, 5-((4-(7-Chloro-[1,2,4]triazolo[1,5-a]pyridin-6-yl)piperidin-1-yl)sulfonyl)-3-methyl-1,2,4-thiadiazole]",234
